Tests used:
[1] = biological target: T1, FAAH (Homo sapiens, UniProt O00519); experiment: FAAH LC-MS/MS screening assay (anandamide hydrolysis by human liver microsomes); conditions: inhibitor at 30 nM, 60 minute incubation at 37° C.
T1 sequence (O00519 1-579): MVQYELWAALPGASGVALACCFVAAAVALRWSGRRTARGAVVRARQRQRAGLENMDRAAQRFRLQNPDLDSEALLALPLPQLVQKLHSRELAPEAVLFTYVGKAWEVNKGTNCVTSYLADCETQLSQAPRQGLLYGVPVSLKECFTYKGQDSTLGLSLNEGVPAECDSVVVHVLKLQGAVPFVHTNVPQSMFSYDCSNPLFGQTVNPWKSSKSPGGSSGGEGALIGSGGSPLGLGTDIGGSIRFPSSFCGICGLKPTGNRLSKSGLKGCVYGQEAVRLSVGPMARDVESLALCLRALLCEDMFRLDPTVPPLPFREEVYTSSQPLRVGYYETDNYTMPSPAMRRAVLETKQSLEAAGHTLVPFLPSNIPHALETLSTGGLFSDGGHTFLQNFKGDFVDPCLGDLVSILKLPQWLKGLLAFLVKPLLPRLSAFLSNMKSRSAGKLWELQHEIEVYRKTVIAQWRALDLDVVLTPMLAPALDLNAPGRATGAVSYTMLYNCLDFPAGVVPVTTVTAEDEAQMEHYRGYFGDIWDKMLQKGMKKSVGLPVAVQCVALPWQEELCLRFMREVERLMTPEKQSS
Description: The following are combined in a 5-mL glass tube: anandamide (5 μL of 200 ug/mL), 960 μL of 50 mM ammonium phosphate buffer (pH 7.4) containing 0.125% BSA (w/v), 10 μL of DMSO without (control) or with a FAAH inhibitor (1 μg/mL), and 25 μL of human liver microsomes (31.3/g). Prior to incubation, a 100 μL aliquot is transferred to a 96-well plate containing 0.25 mL of acetonitrile and D4 (deuterated) anandamide (0.2 #M). Each 5-mL tube is capped and placed in a shaking water bath maintained at 37° C. for 60 minutes. After a 60 minute incubation, a second 100 μL aliquot is transferred to a 96-well plate as performed earlier. The 96-well plate is then capped, vortex mixed, and placed on an HPLC for liquid chromatography/tandem mass spectrometry (LC/MS/MS) analyses. HPLC is carried out on a Waters 2790 Alliance system (Milford, Mass.). […] The samples are analyzed using an electrospray probe in the positive ionization mode with the cone voltage set at 40 V and capillary at 3.2 kV. […] An area ratio response (anandamide area response/D4 anandamide area response) was determined for each sample. Percent anandamide hydrolysis of each sample is determined by the following equation, [(T=0 response)−(T=60 response)/T=0 response]*100. The percent hydrolysis normalized to control is determined by dividing the % hydrolysis of test sample by the % hydrolysis of the control sample.

[2] = Metabolic stability in human liver S9 fractions (half-life in vitro); assay type: in vitro ADME; conditions: pH 7.2, Human S9 ½ life in-vitro, read-out: half-life in human S9 cells
Description: Generally, a FAAH inhibitor was incubated in human liver S9 fractions. Incubations were conducted at 37° C. in a potassium phosphate buffer (pH 7.2). NADPH and a regenerating system consisting of NADP, glucose 6-phosphate dehydrogenase were provided to the incubates. Incubations were terminated by the addition of methanol and freezing at −80° C. See, e.g., Singh, R. et al. Rapid Commun. Mass Spectrom., 10: 1019-26 (1996).

## CC1(C)CCC(NC(=O)Oc2cccc(-c3cccc(C(N)=O)c3)c2)CC1 [Example 1, (4,4-dimethylcyclohexyl)carbamic acid 3′carbamoylbiphenyl-3-yl ester]
[1]
  anandamide hydrolysis compared to the control: < 50%

## NC(=O)c1cccc(-c2cccc(OC(=O)NC3CCCCC3)c2)c1 [KDS-4103]
[1]
  anandamide hydrolysis compared to the control: 30%
[2]
  half-life: ~30 min

— patent US20080119549A1, “METABOLICALLY-[…] FATTY ACID AMIDE HYDROLASE” (N.V. Organon, priority 2006, published 2008)
